Reference: ChEMBL document CHEMBL1142911, “Design and synthesis of pyridine-pyrazolopyridine-based inhibitors of protein kinase B/Akt” (Bioorg Med Chem, 2007)

What was measured:
MIA PaCa-2 = test: Antiproliferative activity against MIA PaCa cells by MTT assay; assay type: functional, cell-based; settings: Homo sapiens
[1] = target: cAMP-dependent protein kinase (PKA) (Homo sapiens, UniProt P22694+P17612+P22612); test: Inhibition of PKA; assay type: protein assay

Row | SMILES | EC50 (MIA PaCa-2) [nM] | IC50 [1] [nM]
1 | N[C@H](COc1cncc(-c2cc3cn[nH]c3cc2[N+](=O)[O-])c1)Cc1c[nH]c2ccccc12 | 2940 | –
2 | Nc1cc2[nH]nc(Cl)c2cc1-c1cncc(OC[C@@H](N)Cc2c[nH]c3ccccc23)c1 | 330 | 58
3 | N[C@H](COc1cncc(-c2ccc3[nH]nc(Cl)c3c2)c1)Cc1c[nH]c2ccccc12 | 380 | 6.8
4 | N[C@H](COc1cncc(-c2cc3cn[nH]c3cn2)c1)Cc1c[nH]c2ccccc12 | 1160 | –
5 | N[C@H](COc1cncc(-c2cc3cn[nH]c3cn2)c1)Cc1ccccc1 | 1690 | –
6 | N[C@H](COc1cncc(-c2cc3c(Cl)n[nH]c3cn2)c1)Cc1ccccc1 | – | 46
7 | C=Cc1n[nH]c2cnc(-c3cncc(OC[C@@H](N)Cc4ccccc4)c3)cc12 | 660 | 32
8 | N[C@H](COc1cncc(-c2cc3c(-c4ccccc4)n[nH]c3cn2)c1)Cc1ccccc1 | 584 | 371
9 | N[C@H](COc1cncc(-c2ccc3[nH]ncc3c2)c1)Cc1c[nH]c2ccccc12 | 820 | –
10 | N[C@H](COc1cncc(-c2ccc3[nH]nc(C(F)(F)F)c3c2)c1)Cc1c[nH]c2ccccc12 | 1290 | 16
11 | N[C@H](COc1cncc(-c2cc3c(-c4ccco4)n[nH]c3cn2)c1)Cc1ccccc1 | 1200 | 274
12 | Cc1n[nH]c2cnc(-c3cncc(OC[C@@H](N)Cc4c[nH]c5ccccc45)c3)cc12 | 41 | 15
13 | Cc1n[nH]c2cnc(-c3cncc(OC[C@@H](N)Cc4ccccc4)c3)cc12 | 680 | 32
